According to ChEMBL document CHEMBL5236628 (J Med Chem, 2022):
≈ marks a conversion by molar mass, not a printed value. Calls of active or inactive are those of the source. The rule behind the calls is not given here.

How the values were obtained:
Plasmodium falciparum [1] = experiment: microbe, parasite or virus in culture; conditions: NF54, 72 h
Plasmodium falciparum [2] = experiment: Antiplasmodial activity against early stage (I to III) Plasmodium falciparum incubated for 48 hrs by bioluminescence assay; format: functional, organism-based
Plasmodium falciparum [3] = experiment: Antiplasmodial activity against multidrug resistant Plasmodium falciparum K1 incubated for 72 hrs by microplate reader assay; format: functional, organism-based; conditions: K1, 72 h
[4] = Cytotoxicity against CHO cells measured after 48 hrs by MTT assay; conditions: Chinese hamster
HepG2 = experiment: Cytotoxicity against human HepG2 cells after 48 hrs by CellTiter Glo assay; format: toxicity, cell-based; conditions: hepg2, 48 h
[5] = AUC(0 to infinity) in mouse at 3 mg/kg, iv; format: ADME, organism-based; design: dose 3 mg/kg, route iv; conditions: in vivo
[6] = Intrinsic clearance in mouse at 3 mg/kg, iv; format: ADME, organism-based; conditions: in vivo
[7] = Cmax in mouse at 50 mg/kg, po; format: ADME, organism-based; design: dose 50 mg/kg, route po; conditions: in vivo
[8] = Volume of distribution in mouse at 3 mg/kg, iv; format: ADME, organism-based; conditions: in vivo
[9] = AUC(0 to infinity) in mouse at 10 mg/kg, po; format: ADME, organism-based; design: dose 10 mg/kg, route po; conditions: in vivo
[10] = Tmax in mouse at 50 mg/kg, po; format: ADME, organism-based; conditions: in vivo
[11] = Selectivity index, ratio of IC50 for Plasmodium falciparum NF54 to IC50 for CHO cells; conditions: hamster
physchem = conditions: buffer, pH 7.4
[12] = Cmax in mouse at 10 mg/kg, po; format: ADME, organism-based; design: dose 10 mg/kg, route po; conditions: in vivo
[13] = Tmax in mouse at 10 mg/kg, po; format: ADME, organism-based; conditions: in vivo
[14] = Apparent half life in mouse at 10 mg/kg, po; format: ADME, organism-based; conditions: in vivo, read-out: t1/2(app) (converted)
[15] = Apparent half life in mouse at 3 mg/kg, iv; format: ADME, organism-based; conditions: in vivo, read-out: t1/2(app) (converted)
Plasmodium berghei [16] = experiment: Antiplasmodial activity against Plasmodium berghei ANKA infected in mouse assessed as reduction in parasitemia at 50 mg/kg, po administered for 4 days; format: functional; design: scale not given: the % may be the effect or the level left; conditions: time 4 day
[17] = AUC(0 to infinity) in mouse at 50 mg/kg, po; format: ADME, organism-based; design: dose 50 mg/kg, route po; conditions: in vivo
[18] = Oral bioavailability in mouse at 10 mg/kg; format: ADME, organism-based; conditions: in vivo
[19] = Apparent half life in mouse at 50 mg/kg, po; format: ADME, organism-based; conditions: in vivo, read-out: t1/2(app) (converted)
[20] = Oral bioavailability in mouse at 50 mg/kg; format: ADME, organism-based; conditions: in vivo
Plasmodium berghei [21] = experiment: Antiplasmodial activity against liver stage Plasmodium berghei ANKA sporozoites expressing GFP infected in HepG2 cells pre-infected with cells for 1 hr prior to compound addition and measured after 48 hrs by flow cytometry analysis
Plasmodium berghei [22] = experiment: Antiplasmodial activity against Plasmodium berghei ANKA infected in mouse assessed as mean survival days at 50 mg/kg, po administered for 4 days and measured upto 30 days; format: functional; conditions: time 4 day
Hemozoin = experiment: Inhibition of Beta-hematin in Plasmodium falciparum NF54 assessed as hemozoin formation after 36 hrs by flow cytometry analysis
[23] = Drug accumulation in nucleus of human erythrocytes infected with chloroquine sensitive Plasmodium falciparum NF54 by live cell imaging analysis; format: ADME, subcellular; conditions: erythrocyte
[24] = Drug accumulation in endoplasmic reticulum of human erythrocytes infected with chloroquine sensitive Plasmodium falciparum NF54 by live cell imaging analysis; format: ADME, subcellular; conditions: erythrocyte
[25] = Drug accumulation in neutral lipid droplets of human erythrocytes infected with chloroquine sensitive Plasmodium falciparum NF54 by live cell imaging analysis; format: ADME, cell-based; conditions: erythrocyte
Plasmodium falciparum [26] = experiment: Antiplasmodial activity against multidrug resistant Plasmodium falciparum K1 infected in human erythrocytes incubated for 48 hrs followed by addition of [3H]-hypoxanthine and measured after 24 hrs by beta-plate liquid scintillation counting method; format: functional, organism-based
[27] = Drug accumulation in lysosomes of human erythrocytes infected with chloroquine sensitive Plasmodium falciparum NF54 by live cell imaging analysis; format: ADME, cell-based; conditions: erythrocyte
Plasmodium falciparum [28] = experiment: Antiplasmodial activity against chloroquine sensitive Plasmodium falciparum NF54 infected in human erythrocytes incubated for 48 hrs followed by addition of [3H]-hypoxanthine and measured after 24 hrs by beta-plate liquid scintillation counting method; format: functional, organism-based
[29] = Drug accumulation in hemozoin crystal of human erythrocytes infected with chloroquine sensitive Plasmodium falciparum NF54 by live cell imaging analysis; format: ADME, cell-based; conditions: erythrocyte
[30] = Drug accumulation in mitochondria of human erythrocytes infected with chloroquine sensitive Plasmodium falciparum NF54 by live cell imaging analysis; format: ADME; conditions: erythrocyte
[31] = biological target: Voltage-gated inwardly rectifying potassium channel KCNH2 (Homo sapiens, UniProt Q12809); experiment: Inhibition of human ERG expressed in CHO-K1 cells by Q-patch clamp assay
Voltage-gated inwardly rectifying potassium channel KCNH2, sequence (Q12809 whole entry): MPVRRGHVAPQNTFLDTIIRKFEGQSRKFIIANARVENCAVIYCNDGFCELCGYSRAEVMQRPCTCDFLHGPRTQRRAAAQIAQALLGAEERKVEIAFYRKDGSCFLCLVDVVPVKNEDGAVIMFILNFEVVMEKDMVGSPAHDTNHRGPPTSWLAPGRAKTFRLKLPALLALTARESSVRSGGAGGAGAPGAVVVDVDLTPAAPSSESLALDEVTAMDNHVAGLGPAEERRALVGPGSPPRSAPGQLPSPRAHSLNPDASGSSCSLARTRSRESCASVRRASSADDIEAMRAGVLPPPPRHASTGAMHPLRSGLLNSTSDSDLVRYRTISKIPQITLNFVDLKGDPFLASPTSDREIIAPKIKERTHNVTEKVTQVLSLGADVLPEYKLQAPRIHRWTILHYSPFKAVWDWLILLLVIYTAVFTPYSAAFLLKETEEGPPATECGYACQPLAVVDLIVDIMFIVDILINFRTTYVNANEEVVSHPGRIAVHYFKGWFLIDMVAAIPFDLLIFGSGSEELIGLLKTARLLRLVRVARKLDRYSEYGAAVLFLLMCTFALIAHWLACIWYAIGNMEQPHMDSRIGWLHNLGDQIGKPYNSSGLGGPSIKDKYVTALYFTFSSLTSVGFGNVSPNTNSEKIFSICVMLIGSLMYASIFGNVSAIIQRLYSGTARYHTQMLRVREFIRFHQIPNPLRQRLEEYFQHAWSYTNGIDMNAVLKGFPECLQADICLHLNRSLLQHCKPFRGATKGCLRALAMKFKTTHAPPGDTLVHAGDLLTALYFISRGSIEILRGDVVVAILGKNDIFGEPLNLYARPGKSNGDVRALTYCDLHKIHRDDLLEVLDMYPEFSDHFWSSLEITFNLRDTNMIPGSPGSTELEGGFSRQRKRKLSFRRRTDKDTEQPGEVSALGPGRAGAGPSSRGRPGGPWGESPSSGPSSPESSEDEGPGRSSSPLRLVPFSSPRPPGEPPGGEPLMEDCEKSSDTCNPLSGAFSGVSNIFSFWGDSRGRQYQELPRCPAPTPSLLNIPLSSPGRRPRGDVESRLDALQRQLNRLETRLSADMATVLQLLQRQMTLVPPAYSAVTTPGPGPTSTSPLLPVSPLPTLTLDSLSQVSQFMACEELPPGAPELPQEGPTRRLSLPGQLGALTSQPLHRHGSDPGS

Plasmodium falciparum [32] = experiment: Antiplasmodial activity against Plasmodium falciparum assessed as reduction in parasite viability incubated for 72 hrs by LDH assay; format: functional, organism-based

Cn1c(NC2CCN(CCc3ccc(-c4nc(C(C)(C)C)no4)cc3)CC2)nc2ccccc21 gave an IC50 (Plasmodium falciparum [1]) of 64 nM, an IC50 (Plasmodium falciparum [2]) of 1180 nM and an IC50 (Plasmodium falciparum [3]) of 300 nM. For the same compound, the IC50 at 48 h ([4]; cho) was 4.69 µM and the Activity (HepG2) was “Non-Toxic”.
Cc1noc(-c2ccc(CCN3CCC(Nc4nc5ccccc5[nH]4)CC3)cc2)n1 gave an AUC [5] of 550 µM/min, a CL [6] of 16.6 mL/min/kg and a Cmax [7] of 5.9 µM. For the same compound, the Vd [8] was 13.6 L/kg, the AUC [9] was 535 µM/min and the Tmax [10] was 3 h. For the same compound, the selectivity ratio [11] was 64.7, the solubility kinetic at 2 h (physchem) was 80 µM (≈ 32.2 µg/mL) and the Cmax [12] was 1 µM. It also gave a Tmax [13] of 1.5 h, a half-life [14] of 618 min and a half-life [15] of 696 min. The Activity (Plasmodium berghei [16]) was 40%, the IC50 (Plasmodium falciparum [1]) was 55 nM and the IC50 (Plasmodium falciparum [3]) was 176 nM. The AUC [17] was 5548 µM/min, the bioavailability [18] was 29.3% and the half-life [19] was 552 min. For the same compound, the IC50 at 48 h ([4]; CHO cells) was 3.56 µM and the bioavailability [20] was 61%.
Cn1c(NC2CCN(CCc3ccc(-c4nc(C(F)(F)F)no4)cc3)CC2)nc2ccccc21 gave an IC50 (Plasmodium berghei [21]) of 210 nM, an Activity (Plasmodium berghei [16]) of 90% and an IC50 (Plasmodium falciparum [1]) of 66 nM. For the same compound, the IC50 (Plasmodium falciparum [2]) was 1670 nM, the IC50 (Plasmodium falciparum [3]) was 48 nM and the IC50 at 48 h ([4]; cho) was 3.18 µM. For the same compound, the MSD (Plasmodium berghei [22]) was 9 days and the Activity (HepG2) was “Non-Toxic”.
With CN(C)c1ccc2nc3ccc(N(C)C)cc3[s+]c2c1 [METHYLENE BLUE ANHYDROUS] the IC50 (Plasmodium falciparum [2]) was 200 nM.
In the case of FC(F)(F)c1noc(-c2ccc(CCN3CCC(Nc4nc5ccccc5[nH]4)CC3)cc2)n1, the inhibition (Hemozoin) is reported as “inactive”, the AUC [5] is reported as 93.4 µM/min and the CL [6] is reported as 71.7 mL/min/kg. The Cmax [7] was 1.5 µM, the Vd [8] was 26.6 L/kg and the AUC [9] was 48 µM/min. For the same compound, the Tmax [10] was 1.7 h, the Cmax [12] was 0.3 µM and the Tmax [13] was 0.7 h. For the same compound, the half-life [14] was 66 min, the half-life [15] was 252 min and the AUC [17] was 1429 µM/min. For the same compound, the bioavailability [18] was 15.6%, the half-life [19] was 612 min and the IC50 at 48 h ([4]; cho) was 1.96 µM. The MSD (Plasmodium berghei [22]) was 14 days, the Activity (HepG2) was “Non-Toxic” and the bioavailability [20] was 93.3%.
With O=[N+]([O-])c1ccc(NCCn2c(NC3CCN(CCc4ccc(-c5nc(C(F)(F)F)no5)cc4)CC3)nc3ccccc32)c2nonc12 the Drug uptake [23] was “Not Active”, the Drug uptake [24] was “Active” and the Drug uptake [25] was “Active”. For the same compound, the solubility kinetic at 2 h (physchem) was 120 µM (≈ 79.5 µg/mL), the IC50 (Plasmodium falciparum [26]) was 370 nM and the Drug uptake [27] was “Active”. For the same compound, the IC50 (Plasmodium falciparum [28]) was 140 nM, the Drug uptake [29] was “Active” and the Drug uptake [30] was “Active”.
With N#Cc1ccc(Cn2c(NC3CCN(CCc4ccc(-c5nc(C(F)(F)F)no5)cc4)CC3)nc3ccccc32)cc1 the inhibition (Hemozoin) was “Active”, the selectivity ratio [11] was 34 and the solubility kinetic at 2 h (physchem) was 10 µM (≈ 5.72 µg/mL). The IC50 (Plasmodium falciparum [1]) was 22 nM, the IC50 (Plasmodium falciparum [3]) was 27 nM and the IC50 [31] was 470 nM. The IC50 at 48 h ([4]; CHO cells) was 0.75 µM.
In the case of Cc1noc(-c2ccc(CCN3CCC(Nc4nc5ccccc5n4Cc4ccc(C(F)(F)F)nc4)CC3)cc2)n1, the inhibition (Hemozoin) is reported as “Active”, the selectivity ratio [11] is reported as 128 and the solubility kinetic at 2 h (physchem) is reported as 40 µM (≈ 22.5 µg/mL). It also gave an IC50 (Plasmodium falciparum [1]) of 44 nM, an IC50 (Plasmodium falciparum [3]) of 173 nM and an IC50 [31] of 250 nM. It also gave an IC50 at 48 h ([4]; CHO cells) of 5.63 µM.
COc1ccc(CCN2CCC(Nc3nc4cc(Cl)c(Cl)cc4[nH]3)CC2)cc1 showed an IC50 (Plasmodium falciparum [32]) of 83 nM.
In the case of COc1ccc(CCN2CCC(Nc3nc4ccccc4n3Cc3ccc(F)cc3)CC2)cc1 [ASTEMIZOLE], the solubility kinetic at 2 h (physchem) is reported as 40 µM (≈ 18.3 µg/mL) and the Activity (HepG2) is reported as “Non-Toxic”.
Compound NCCn1c(NC2CCN(CCc3ccc(-c4nc(C(F)(F)F)no4)cc3)CC2)nc2ccccc21 has a solubility kinetic at 2 h (physchem) of over 200 µM, an IC50 (Plasmodium falciparum [26]) of 36 nM and an IC50 (Plasmodium falciparum [28]) of 90 nM.
